Assay results from patent US12691145B2, “Plasma-treated hydrogel compositions and uses thereof” (UNIVERSITAT POLITÉCNICA DE CATALUNYA, priority 2020, dated 2026).

Assay: Detection of RONS in plasma-treated polymer solutions (strips, AR/HRP reagent, Griess reagent)
Format: physicochemical
Conditions: 200 μL
Excerpt: In the examples presented here, two kinds of atmospheric plasma jet were used: a commercially available cold atmospheric plasma jet kINPen IND (NEOPLAS Tools, Germany), operating with argon and an atmospheric pressure plasma jet (APPJ) using He as plasma gas in a jet design based on a single electrode. Gas flow was regulated between 1 and 2.5 L/min for kINPen and between 1 and 5 L/min for APPJ by using Ar and He Bronkhorst Mass View flow controllers (BRONKHORST, Netherlands), respectively. All plasma treatments of polymeric solutions for RONS quantification were performed on 200 μL of the polymeric solution in 96-well plates, with a distance between the nozzle and the sample surface between 10 and 20 mm. These plasma treatments were done with ungrounded samples. Both grounded and ungrounded samples can be used to obtain the compositions of the present invention, since the skilled person can set the plasma treatment conditions to obtain the desired RONS concentrations.
Determination of NO2^− concentration in plasma-treated polymer solutions was performed using Griess reagent. The Griess reagent used was obtained by dissolving 1% wt/v of sulphanilamide, 0.1% wt/v of N-(1-naphthyl)ethylenediamine dihydrochloride (NEED) and 5% w/v of phosphoric acid in de-ionized water. 200 μL of Griess reagent were added on 200 μL of sample in 96 well-plates. The plates were incubated for 10 min at room temperature protected from the light. The absorbance was measured at λabs=540 nm using a Synergy HTX Hybrid Multi Mode Microplate Reader (BioTek Instruments, Inc., USA). The [NO2^−] in each sample was determined from the absorbance values by using a calibration curve made from NaNO2 dilutions in the corresponding polymer solutions.
The concentration of hydrogen peroxide was determined by reaction of H2O2 with Amplex Red in presence of HRP enzyme that leads to the creation of resorufin, a fluorescent product. Amplex Red/HRP reagent consists in 100 μM of Amplex Red and 0.25 U/mL HRP in DI water. Since the higher concentration of H2O2 able to be processed properly by this reagent is around 10 μM of H2O2, plasma-treated polymer solutions were diluted 200 times previously to the addition of the reagent. In this case, for hydrogen peroxide detection, 50 μL of the Amplex Red/HRP reagent was added to 200 μL of the 200×-diluted polymer solution sample in a 96-well plate and incubated for 30 min at 37° C. Subsequent fluorescence measurements were performed by means of a Synergy HTX Hybrid Multi Mode Microplate Reader (BioTek Instruments, Inc., USA), with fluorescence filters centred at λex=560/20 nm and λem=590/20 nm as excitation and emission wavelengths, respectively. Concentrations of H2O2 in polymer solution generated by plasma treatment were obtained from the fluorescence values using a calibration curve made from 30% hydrogen peroxide solution in the corresponding polymer solutions.
For certain polymer solutions, interferences may be found between the solution and the reactants, invalidating the measure. In such cases, another method was used to determine the concentration of H2O2, […] in the polymer solutions after plasma treatment: QUANTOFIX® test strips, which were analyzed by means of a reflexion photometer (QUANTOFIX® Relax, of Macherey Nagel). The strips consist of plastic strips to which test paper has been sealed. Nitrite strips are also based in Griess reagent. Peroxide strips also use a redox reaction. The range of detection of the test strips used for H2O2, NO3^− and NO2^− were 1-100 mg/L, 10-500 mg/L and 1-80 mg/L, respectively. The plasma-treated polymer solutions were diluted, if necessary, to be within the measuring range.

Water
H2O2 (APPJ, treat. time 180 s): 9.2 mg/L
NO2^− (APPJ, treat. time 180 s): 1.7 mg/L
H2O2 (APPJ, treat. time 300 s): 16.4 mg/L
NO2^− (APPJ, treat. time 300 s): 2.7 mg/L
H2O2 (kINPen, treat. time 180 s): 10.3 mg/L
NO2^− (kINPen, treat. time 180 s): 2.6 mg/L
H2O2 (kINPen, treat. time 300 s): 29.3 mg/L
NO2^− (kINPen, treat. time 300 s): 2.7 mg/L
